IC50 data for 1 compound are collected here from paper PMC8664950, “Potent but transient immunosuppression of T-cells is a general feature of CD71^+ erythroid cells” (Communications Biology, 2021).

For one experiment, the target named is T1, ARG1 (Homo sapiens, UniProt P05089).
T1 construct: recombinant human ARG1 (E. coli)
T1 sequence (P05089 1-322): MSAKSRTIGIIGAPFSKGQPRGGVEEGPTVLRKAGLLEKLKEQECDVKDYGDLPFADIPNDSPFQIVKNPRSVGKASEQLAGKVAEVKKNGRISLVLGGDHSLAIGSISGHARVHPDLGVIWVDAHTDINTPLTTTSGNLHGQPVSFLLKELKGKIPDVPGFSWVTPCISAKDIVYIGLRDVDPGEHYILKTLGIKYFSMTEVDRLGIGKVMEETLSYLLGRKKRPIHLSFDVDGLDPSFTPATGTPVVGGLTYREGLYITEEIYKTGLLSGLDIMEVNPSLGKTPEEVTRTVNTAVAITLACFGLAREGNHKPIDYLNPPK
In words: colorimetric urea-production arginase assay with recombinant enzyme. It counts as biochemical.

A further experiment addresses T2, ARG2 (Homo sapiens, UniProt P78540).
T2 construct: recombinant human ARG2 (E. coli)
T2 sequence (P78540 23-354): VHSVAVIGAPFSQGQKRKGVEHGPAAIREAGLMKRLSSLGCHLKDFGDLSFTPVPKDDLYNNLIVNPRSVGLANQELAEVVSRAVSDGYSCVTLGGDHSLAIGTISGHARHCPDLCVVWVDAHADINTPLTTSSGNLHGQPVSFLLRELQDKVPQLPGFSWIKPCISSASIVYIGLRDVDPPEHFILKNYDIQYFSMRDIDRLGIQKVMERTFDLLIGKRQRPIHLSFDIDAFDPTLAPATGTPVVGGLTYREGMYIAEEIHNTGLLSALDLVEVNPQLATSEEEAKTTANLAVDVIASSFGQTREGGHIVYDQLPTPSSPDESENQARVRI
The experiment is described as above. It counts as biochemical.

For `NNc1ccccc1` [PHZ, phenylhydrazine], the IC50 (commonly the concentration that inhibits the measured activity by half) on ARG1 amounted to 1020 µM; at ARG2, 61 µM.
